Test [1] has as its target T1, Interstitial collagenase (Homo sapiens, UniProt P03956).
T1 sequence (P03956 whole entry): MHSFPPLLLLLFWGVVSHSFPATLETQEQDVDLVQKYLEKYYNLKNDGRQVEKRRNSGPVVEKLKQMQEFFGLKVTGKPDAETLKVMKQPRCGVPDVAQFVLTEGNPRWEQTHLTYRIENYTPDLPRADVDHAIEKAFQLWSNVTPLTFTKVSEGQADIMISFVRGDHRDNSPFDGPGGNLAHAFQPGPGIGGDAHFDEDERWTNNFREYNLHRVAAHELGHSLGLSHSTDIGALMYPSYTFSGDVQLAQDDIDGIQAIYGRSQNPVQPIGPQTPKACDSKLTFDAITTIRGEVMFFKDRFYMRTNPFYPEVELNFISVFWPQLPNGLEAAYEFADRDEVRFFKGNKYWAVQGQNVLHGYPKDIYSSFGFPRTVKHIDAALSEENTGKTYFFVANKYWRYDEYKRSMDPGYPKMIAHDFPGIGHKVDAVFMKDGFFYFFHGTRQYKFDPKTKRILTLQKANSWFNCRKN
The test can be described thus: In vitro inhibitory activity against matrix metalloprotease-1.

In test [2] the target is Collagenase 3 (Homo sapiens, UniProt P45452). The test can be described thus: In vitro inhibitory activity against matrix metalloprotease-13.
For test [3], the target named is Disintegrin and metalloproteinase domain-containing protein 17 (Homo sapiens, UniProt P78536). Kind of test: Inhibitory activity against Tumor necrosis factor alpha converting enzyme.
Test [4] is described as follows: Ability to inhibit LPS-stimulated TNF production in THP-1 cells at 3 uM concentration. Format: functional. The following applies: Homo sapiens.
Test [5] addresses T2, Interstitial collagenase (Homo sapiens) (UniProt P03956).
T2 sequence (whole entry): T1 sequence (P03956 whole entry)
The test can be described thus: In vitro inhibitory activity against matrix metallo proteinase-1 at 1 uM concentration.

Structures are written as SMILES.

Chain of Disintegrin and metalloproteinase domain-containing protein 17 (P78536 whole entry, the tested form may be a part): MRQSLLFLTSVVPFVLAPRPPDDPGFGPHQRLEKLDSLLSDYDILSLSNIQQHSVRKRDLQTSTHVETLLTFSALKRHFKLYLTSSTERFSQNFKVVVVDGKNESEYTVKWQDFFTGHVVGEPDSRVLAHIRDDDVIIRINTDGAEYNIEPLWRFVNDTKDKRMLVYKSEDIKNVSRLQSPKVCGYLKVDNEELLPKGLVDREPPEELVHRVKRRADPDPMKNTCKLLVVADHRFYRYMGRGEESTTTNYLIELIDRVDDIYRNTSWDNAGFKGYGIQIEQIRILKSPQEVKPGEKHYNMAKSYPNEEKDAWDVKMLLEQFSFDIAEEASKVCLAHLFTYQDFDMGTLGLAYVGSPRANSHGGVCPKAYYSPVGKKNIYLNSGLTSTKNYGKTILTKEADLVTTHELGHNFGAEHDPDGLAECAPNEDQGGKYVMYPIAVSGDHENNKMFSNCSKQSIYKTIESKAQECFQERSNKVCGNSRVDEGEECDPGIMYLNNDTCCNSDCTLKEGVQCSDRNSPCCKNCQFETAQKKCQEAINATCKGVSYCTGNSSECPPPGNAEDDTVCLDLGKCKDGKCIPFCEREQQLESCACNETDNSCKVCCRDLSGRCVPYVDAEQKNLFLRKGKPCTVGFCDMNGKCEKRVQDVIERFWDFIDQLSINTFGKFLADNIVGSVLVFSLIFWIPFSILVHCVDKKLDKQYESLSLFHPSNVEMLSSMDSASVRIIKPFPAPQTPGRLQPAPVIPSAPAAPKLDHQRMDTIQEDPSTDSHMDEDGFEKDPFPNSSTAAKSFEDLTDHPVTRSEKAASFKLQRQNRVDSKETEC

With `CC#CCOc1ccc(S(=O)(=O)N2Cc3cc(N(C)C)ccc3N(C(C)=O)CC2C(=O)NO)cc1` (configuration not stated), the IC50 (in general, the concentration that inhibits the measured activity by half) in test [1] stood at 682 nM; in test [2] it was 17 nM; in test [3], 197 nM. 3 µM produced 33% inhibition in test [4].
`CC#CCOc1ccc(S(=O)(=O)N2Cc3ccccc3N(C(C)=O)CC2C(=O)NO)cc1` (configuration not stated): testing at 3 µM in test [4] gave an inhibition of 60%.
`CC#CCOc1ccc(S(=O)(=O)N2Cc3cc(N4CCOCC4)ccc3N(C(C)=O)CC2C(=O)NO)cc1` (configuration not stated): the half-maximal inhibitory concentration (IC50) was found to be 1260 nM in test [1], 33 nM in test [2] and 130 nM in test [3]. Further, in test [4], testing at 3 µM gave an inhibition of 73%.
Take `CC#CCOc1ccc(S(=O)(=O)N2Cc3ccc(CN(C)C)cc3N(C(C)=O)CC2C(=O)NO)cc1` (configuration not stated): the IC50 in test [1] turned out to be 904 nM; in test [2], 67 nM; in test [3] it was 18 nM. The inhibition (commonly how much of the control response was suppressed) at 3 µM in test [4] was 70%.
For the molecule `CC#CCOc1ccc(S(=O)(=O)N2Cc3cc(NCCc4ccccn4)ccc3N(C(C)=O)CC2C(=O)NO)cc1` (configuration not stated), the results for the IC50 in test [2] and in test [3] were 47 nM and 49 nM, respectively. In addition, at 3 µM the inhibition in test [4] was 44%. In test [5], this molecule registered an inhibition of 30%.
As for `CC#CCOc1ccc(S(=O)(=O)N2Cc3cc(OCCc4ccccc4)ccc3N(C(C)=O)CC2C(=O)NO)cc1` (configuration not stated), the IC50 came out at 28 nM in test [2] and 36 nM in test [3]. Besides, at 3 µM the inhibition in test [4] was 83%. In addition, in test [5], the inhibition worked out at 45%.
`CC#CCOc1ccc(S(=O)(=O)N2Cc3ccc(CO)cc3N(C(C)=O)CC2C(=O)NO)cc1` (configuration not stated): the IC50 was 500 nM in test [1], 20 nM in test [2] and 12 nM in test [3]. The molecule further yielded an inhibition at 3 µM in test [4] of 63%.
For `CC#CCOc1ccc(S(=O)(=O)N2Cc3ccc(C(=O)NC)cc3N(C(C)=O)CC2C(=O)NO)cc1` (configuration not stated), the IC50 came to 813 nM in test [1], 42 nM in test [2] and 41 nM in test [3]. The molecule further yielded an inhibition at 3 µM in test [4] of 64%.
The like results for `CC#CCOc1ccc(S(=O)(=O)N2Cc3ccccc3N(C(=O)COC)CC2C(=O)NO)cc1` (configuration not stated) were, in that order, 853 nM, 97 nM, 81 nM and 73%.
The matching figures for `CC#CCOc1ccc(S(=O)(=O)N2Cc3ccc(CN4CCNCC4)cc3N(C(C)=O)CC2C(=O)NO)cc1` (configuration not stated): 483 nM, 17 nM, 14 nM and 72%.
In the case of `CC#CCOc1ccc(S(=O)(=O)N2Cc3ccccc3N(C(=O)c3ccco3)CC2C(=O)NO)cc1` (configuration not stated), the inhibition at 3 µM in test [4] came out at 74%.
As to `CC#CCOc1ccc(S(=O)(=O)N2Cc3ccccc3N(C(=O)c3cnccn3)CC2C(=O)NO)cc1` (configuration not stated), the IC50 in test [1] is 356 nM; in test [2], 20 nM; in test [3] it was 69 nM. This molecule returned an inhibition at 3 µM in test [4] of 41%.
The matching figures for `CC#CCOc1ccc(S(=O)(=O)N2Cc3ccc(CNC(C)=O)cc3N(C(C)=O)CC2C(=O)NO)cc1` (configuration not stated): 578 nM, 12 nM, 31 nM and 46%.
The like results for `CC#CCOc1ccc(S(=O)(=O)N2Cc3ccccc3N(C(=O)c3cccnc3)CC2C(=O)NO)cc1` (configuration not stated) were, in that order, 238 nM, 19 nM, 89 nM and 33%.
In the case of `CC#CCOc1ccc(S(=O)(=O)N2Cc3cc(N4CCN(C)CC4)ccc3N(C(C)=O)CC2C(=O)NO)cc1` (configuration not stated), the figures for the IC50 in test [1], in test [2] and in test [3] were 852 nM, 21 nM and 92 nM, respectively. In test [4], this molecule showed an inhibition at 3 µM of 75%.
The matching figures for `CC#CCOc1ccc(S(=O)(=O)N2Cc3ccc(CNC)cc3N(C(C)=O)CC2C(=O)NO)cc1` (configuration not stated): 456 nM, 32 nM, 14 nM and 81%.
Consider `CC#CCOc1ccc(S(=O)(=O)N2Cc3cc(N(C)CCc4ccccn4)ccc3N(C(C)=O)CC2C(=O)NO)cc1` (configuration not stated), for which the IC50 in test [2] is 53 nM; in test [3], 121 nM. Moreover, the inhibition at 3 µM in test [4] came to 82%. The inhibition in test [5] came to 19%.

These data come from ChEMBL document CHEMBL1137145, “Benzodiazepine inhibitors of the MMPs and TACE. Part 2” (Bioorg Med Chem Lett, 2004).
